From PubChem BioAssay AID1259407 (Chemical Carcinogenesis Research Information System (CCRIS), 2018) come the findings set out here.

The test system of this data set is CCRIS mutagenicity, Ames/micronucleus/aberration tests. The experiment in a line: CCRIS mutagenicity studies.
The mark [1] stands for this setting: Test System: AMES SALMONELLA TYPHIMURIUM, Strain/Indicator: TA98, Metabolic Activation: RAT, LIVER, S-9, AROCLOR 1254, Method: STANDARD PLATE.
The mark [2] stands for this setting: Test System: AMES SALMONELLA TYPHIMURIUM, Strain/Indicator: TA98, Metabolic Activation: NONE, Method: STANDARD PLATE.
Where [3] appears, read: Test System: AMES SALMONELLA TYPHIMURIUM, Strain/Indicator: TA100, Metabolic Activation: NONE, Method: STANDARD PLATE.
[4] abbreviates: Test System: AMES SALMONELLA TYPHIMURIUM, Strain/Indicator: TA100, Metabolic Activation: RAT, LIVER, S-9, AROCLOR 1254, Method: STANDARD PLATE.
[5] abbreviates: Test System: AMES SALMONELLA TYPHIMURIUM, Strain/Indicator: TA1535, Metabolic Activation: NONE, Method: STANDARD PLATE.
Setting [6] is: Test System: AMES SALMONELLA TYPHIMURIUM, Strain/Indicator: TA1535, Metabolic Activation: RAT, LIVER, S-9, AROCLOR 1254, Method: STANDARD PLATE.
The mark [7] stands for this setting: Test System: AMES SALMONELLA TYPHIMURIUM, Strain/Indicator: TA1537, Metabolic Activation: NONE, Method: STANDARD PLATE.
Setting [8] is: Test System: AMES SALMONELLA TYPHIMURIUM, Strain/Indicator: TA1537, Metabolic Activation: RAT, LIVER, S-9, AROCLOR 1254, Method: STANDARD PLATE.

Structures are written as SMILES. Active and inactive are the calls of the source. How the calls were made is not given here.

For the compound `CCOC(=O)C(=NNc1ccc(-c2ccc(NN=C(C(=O)OCC)C(=O)OCC)c(Cl)c2)cc1Cl)C(=O)OCC`, the mutagenic call (Test System: AMES SALMONELLA TYPHIMURIUM, Strain/Indicator: TA98, Metabolic Activation: HAMSTER, LIVER, S-9, Method: PREINCUBATION (PRIVAL METHOD)) is “inactive; negative” and the mutagenic call (Test System: AMES SALMONELLA TYPHIMURIUM, Strain/Indicator: TA98, Metabolic Activation: NONE, Method: PREINCUBATION (PRIVAL METHOD)) was “inactive; negative”.

`O=C(c1ccccc1)N(O)c1ccc2c(c1)Cc1ccccc1-2`: the mutagenic call under setting [1] was “active; positive”.

For the compound `O=[N+]([O-])c1ccccc1C(F)(F)F`, the mutagenic call runs as follows: under setting [2], “inactive; negative”; under setting [1], “inactive; negative”; under setting [3], “inactive; negative”; under setting [4], “inactive; negative”; under setting [5], “inactive; negative”; under setting [6], “inactive; negative”. In addition, the mutagenic call runs as follows: under setting [7], “inactive; negative”; under setting [8], “inactive; negative”; (Test System: AMES SALMONELLA TYPHIMURIUM, Strain/Indicator: TA1538, Metabolic Activation: NONE, Method: STANDARD PLATE) “inactive; negative”; (Test System: AMES SALMONELLA TYPHIMURIUM, Strain/Indicator: TA1538, Metabolic Activation: RAT, LIVER, S-9, AROCLOR 1254, Method: STANDARD PLATE) “inactive; negative”.

`O=Nc1ccc(Sc2ccccc2)cc1`: the mutagenic call is, setting by setting: (Test System: AMES SALMONELLA TYPHIMURIUM, Strain/Indicator: TA98(NR), Metabolic Activation: NONE, Method: STANDARD PLATE) “active; positive”; under setting [2], “active; positive”; under setting [1], “active; positive”.

In the case of `c1ccc2c(c1)-c1ccc3ccccc3c1C1OC21` (stereo unspecified), the mutagenic call is, setting by setting: (Test System: AMES SALMONELLA TYPHIMURIUM, Strain/Indicator: TA98, Metabolic Activation: NONE, Method: PREINCUBATION) “active; positive”; (Test System: AMES SALMONELLA TYPHIMURIUM, Strain/Indicator: TA98, Metabolic Activation: NONE, Method: PREINCUBATION (KCL-CONTAINING MEDIUM)) “active; positive”; (Test System: AMES SALMONELLA TYPHIMURIUM, Strain/Indicator: TA98, Metabolic Activation: NONE, Method: PREINCUBATION (KCL-FREE MEDIUM)) “active; positive”; (Test System: AMES SALMONELLA TYPHIMURIUM, Strain/Indicator: TA100, Metabolic Activation: NONE, Method: PREINCUBATION) “active; positive”; (Test System: AMES SALMONELLA TYPHIMURIUM, Strain/Indicator: TA100, Metabolic Activation: NONE, Method: PREINCUBATION (KCL-CONTAINING OR KCL-FREE MEDIA)) “active; positive”; under setting [3], “active; positive”. Further, the mutagenic call is, setting by setting: under setting [4], “inactive; negative”; under setting [7], “active; positive”; (Test System: CHINESE HAMSTER V-79, Strain/Indicator: V-79/6-THIOGUANINE, Metabolic Activation: NONE, Method: STANDARD PLATE) “active; positive”.

Take `C1=CC2OC2c2cccnc21` (stereo unspecified): the mutagenic call under setting [3] is “inactive; negative” and the mutagenic call (Test System: AMES SALMONELLA TYPHIMURIUM, Strain/Indicator: TA100, Metabolic Activation: RAT, LIVER, S-9, AROCLOR 1254 (10% OR 20%), Method: STANDARD PLATE) was “inactive; negative”.

On to `COc1ccc(S(=O)(=O)n2ncc(Cl)c(Cl)c2=O)cc1`, for which the mutagenic call was “inactive; negative” under setting [2]; “inactive; negative” under setting [1]; “inactive; negative” under setting [3]; “inactive; negative” under setting [4]; “inactive; negative” under setting [5]; “inactive; negative” under setting [6]. Moreover, the mutagenic call runs as follows: under setting [7], “inactive; negative”; under setting [8], “inactive; negative”.

In the case of `NC(CO)C(=O)NNCc1ccc(O)c(O)c1O` (stereo unspecified), the mutagenic call reads like this: under setting [3], “active; positive”; (Test System: AMES SALMONELLA TYPHIMURIUM, Strain/Indicator: TA100, Metabolic Activation: RAT, LIVER, S-9, PHENOBARBITAL, Method: STANDARD PLATE) “active; positive”; (Test System: UDS RAT HEPATOCYTES, Strain/Indicator: THY INCORP, Metabolic Activation: NONE, Method: AUTORADIOGRAPHY) “inactive; negative”.

`CN(Cc1ccccc1)N=O`: the mutagenic call runs as follows: under setting [4], “active; positive”; (Test System: AMES SALMONELLA TYPHIMURIUM, Strain/Indicator: TA100, Metabolic Activation: RAT, LIVER, S-9, ETHANOL, Method: STANDARD PLATE) “active; positive”; (Test System: AMES SALMONELLA TYPHIMURIUM, Strain/Indicator: TA100, Metabolic Activation: RAT, LIVER, S-9, KC500 OR PHENOBARBITAL, Method: LIQUID SUSPENSION) “active; positive”; (Test System: AMES SALMONELLA TYPHIMURIUM, Strain/Indicator: TA100, Metabolic Activation: RAT, LIVER, S-9, Method: STANDARD PLATE) “active; positive”; (Test System: AMES SALMONELLA TYPHIMURIUM, Strain/Indicator: TA1535, Metabolic Activation: HAMSTER, LIVER, S-9, AROCLOR 1254, Method: STANDARD PLATE) “active; positive”; (Test System: AMES SALMONELLA TYPHIMURIUM, Strain/Indicator: TA1535, Metabolic Activation: NONE, Method: PREINCUBATION) “inactive; negative”. Also, the mutagenic call is, setting by setting: under setting [5], “inactive; negative”; (Test System: AMES SALMONELLA TYPHIMURIUM, Strain/Indicator: TA1535, Metabolic Activation: RAT, LIVER, HEPATOCYTES, Method: PREINCUBATION) “inactive; negative”; under setting [6], “active; positive”; (Test System: AMES SALMONELLA TYPHIMURIUM, Strain/Indicator: TA1535, Metabolic Activation: RAT, LIVER, S-9, AROCLOR, Method: PREINCUBATION) “active; positive”; (Test System: AMES SALMONELLA TYPHIMURIUM, Strain/Indicator: TA1535, Metabolic Activation: RAT, LIVER, S-9, ETHANOL, Method: STANDARD PLATE) “inactive; negative”; (Test System: AMES SALMONELLA TYPHIMURIUM, Strain/Indicator: TA1535, Metabolic Activation: RAT, LIVER, S-9, SODIUM PHENOBARBITONE, Method: PREINCUBATION) “active; positive”. In addition, the mutagenic call by setting is: (Test System: AMES SALMONELLA TYPHIMURIUM, Strain/Indicator: TA1535, Metabolic Activation: RAT, LIVER, S-9, Method: PREINCUBATION) “inactive; negative”; (Test System: AMES SALMONELLA TYPHIMURIUM, Strain/Indicator: TA1535, Metabolic Activation: RAT, LIVER, S-9, Method: STANDARD PLATE) “inactive; negative”.

Consider `COc1ccc(-c2nc(-c3ccc(OC)cc3)c(-c3ccc(OC)cc3)[nH]2)cc1`, for which the mutagenic call by setting is: under setting [2], “active; positive”; (Test System: AMES SALMONELLA TYPHIMURIUM, Strain/Indicator: TA98, Metabolic Activation: RAT LIVER S-9, 3-METHYLCHOLANTHRENE, SODIUM PHENOBARBITAL, Method: STANDARD PLATE) “inactive; negative”; under setting [3], “inactive; negative”; (Test System: AMES SALMONELLA TYPHIMURIUM, Strain/Indicator: TA100, Metabolic Activation: RAT LIVER S-9, 3-METHYLCHOLANTHRENE, SODIUM PHENOBARBITAL, Method: STANDARD PLATE) “inactive; negative”.
